Article PMC3681905, “Anti-Influenza Activity of C60 Fullerene Derivatives” (PLoS ONE, 2013)
Like-named read-outs stand apart in the source and are kept apart here.

Columns and labels:
[1] = system: influenza A virus A/Aichi/2/68 (H3N2); assay: microbe, parasite or virus in culture; type: cell-based; conditions: read-out: IC50 H3N2 Aichi strain
[2] = system: influenza A virus A/PR/8/34 (H1N1); assay: microbe, parasite or virus in culture; type: cell-based; conditions: read-out: IC50 H1N1 PR8 strain
[3] = system: HIV-reverse transcriptase; parameters: method as in PMID 15686922; conditions: cited from earlier work
[4] = parameters: method as in earlier work; conditions: cited from earlier work

| Molecule | IC50 ([1]; Influenza A virus, H3N2, MDCK, 24 h) | IC50 ([2]; Influenza A virus, MDCK, 24 h) | inhibition of HIV-reverse transcriptase [3] | antioxidant activity [4] | IC50 [1] | IC50 [2] |
| --- | --- | --- | --- | --- | --- | --- |
| O=C(O)C1NC(C(=O)O)C23c4c5c6c7c8c9c(c%10c%11c2c2c4c4c%12c5c5c6c6c8c8c%13c9c9c%10c%10c%11c%11c2c2c4c4c%12c%12c5c5c6c8c6c8c%13c9c9c%10c%10c%11c2c2c4c4c%12c5c6c5c8c9c%10c2c45)C713 (stereo not drawn) [no. 3, [60]fullerenopyrrolidine-2,5-dicarboxylic acid] | > 100 µM | > 100 µM | inhibits |  |  |  |
| [60]fullerenodicyclopropane-1,1,1′,1′-tetracarboxylic acid [no. 2] |  |  |  | excellent antioxidant activity | > 100 µM | 57 µM |
